In PubChem BioAssay (NCI):
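Where inhibition never reached the appropriate level, the endpoint shown equals the highest concentration tested. Otherwise, values were interpolated linearly from a five-concentration, 48-hour dose response in 96-well plates. Definition used: TGI = concentration required for complete inhibition of growth.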

How the values were obtained:
Test in all cases: NCI tumour cell line growth inhibition, 48 h
MOLT-4 leukemia = system: MOLT-4 leukemia
ACHN renal = system: ACHN renal
DMS 114 small cell lung = system: DMS 114 small cell lung
HOP-92 NSCLC = system: HOP-92 NSCLC
SNB-78 CNS = system: SNB-78 CNS
HCT-15 colon = system: HCT-15 colon
OVCAR-4 ovarian = system: OVCAR-4 ovarian
HOP-62 NSCLC = system: HOP-62 NSCLC
786-0 renal = system: 786-0 renal
M19-MEL melanoma = system: M19-MEL melanoma
SR leukemia = system: SR leukemia
SK-MEL-28 melanoma = system: SK-MEL-28 melanoma
SNB-75 CNS = system: SNB-75 CNS
UO-31 renal = system: UO-31 renal
A549 NSCLC = system: A549 NSCLC
A498 renal = system: A498 renal
SK-OV-3 ovarian = system: SK-OV-3 ovarian
UACC-257 melanoma = system: UACC-257 melanoma
SNB-19 CNS = system: SNB-19 CNS
RPMI-8226 leukemia = system: RPMI-8226 leukemia
SN12C renal = system: SN12C renal
DMS 273 small cell lung = system: DMS 273 small cell lung
LXFL 529 NSCLC = system: LXFL 529 NSCLC
OVCAR-5 ovarian = system: OVCAR-5 ovarian
K-562 leukemia = system: K-562 leukemia
NCI-H460 lung = system: NCI-H460 lung
OVCAR-8 ovarian = system: OVCAR-8 ovarian
SK-MEL-5 melanoma = system: SK-MEL-5 melanoma
NCI-H23 lung = system: NCI-H23 lung
HT29 colon = system: HT29 colon
HOP-18 NSCLC = system: HOP-18 NSCLC
EKVX NSCLC = system: EKVX NSCLC
SW-620 colon = system: SW-620 colon
SF-295 CNS = system: SF-295 CNS
SF-539 CNS = system: SF-539 CNS
RXF-631 renal = system: RXF-631 renal
SF-268 CNS = system: SF-268 CNS
CCRF-CEM leukemia = system: CCRF-CEM leukemia
XF 498 CNS = system: XF 498 CNS
RXF 393 renal = system: RXF 393 renal
U251 CNS = system: U251 CNS
HL-60(TB) leukemia = system: HL-60(TB) leukemia
COLO 205 colon = system: COLO 205 colon
KM20L2 colon = system: KM20L2 colon
CAKI-1 renal = system: CAKI-1 renal
DLD-1 colon = system: DLD-1 colon
TK-10 renal = system: TK-10 renal
M14 melanoma = system: M14 melanoma
OVCAR-3 ovarian = system: OVCAR-3 ovarian
IGROV1 ovarian = system: IGROV1 ovarian
HCT-116 colon = system: HCT-116 colon
SK-MEL-2 melanoma = system: SK-MEL-2 melanoma
UACC-62 melanoma = system: UACC-62 melanoma
MALME-3M melanoma = system: MALME-3M melanoma
NCI-H226 lung = system: NCI-H226 lung
KM12 colon = system: KM12 colon
NCI-H522 lung = system: NCI-H522 lung
LOX IMVI melanoma = system: LOX IMVI melanoma

For `O=[N+]([O-])c1ccc(C2N3CCCCC3[C@@H]3c4[nH]c5ccccc5c4CCN23)cc1` (stereo not given in full), the TGI (MOLT-4 leukemia) was 49.6 µM, the TGI (ACHN renal) was 43.8 µM and the TGI (DMS 114 small cell lung) was 22 µM. It also gave a TGI (HOP-92 NSCLC) of over 100 µM, a TGI (SNB-78 CNS) of 21.6 µM and a TGI (HCT-15 colon) of 59.1 µM. For the same compound, the TGI (OVCAR-4 ovarian) was over 100 µM, the TGI (HOP-62 NSCLC) was 47.9 µM and the TGI (786-0 renal) was over 100 µM. The TGI (M19-MEL melanoma) was 24.4 µM, the TGI (SR leukemia) was over 100 µM and the TGI (SK-MEL-28 melanoma) was 42 µM. For the same compound, the TGI (SNB-75 CNS) was 3.29 µM, the TGI (UO-31 renal) was 81.8 µM and the TGI (A549 NSCLC) was over 100 µM. For the same compound, the TGI (A498 renal) was 36.5 µM, the TGI (SK-OV-3 ovarian) was over 100 µM and the TGI (UACC-257 melanoma) was 41.2 µM. The TGI (SNB-19 CNS) was 67.1 µM, the TGI (RPMI-8226 leukemia) was over 100 µM and the TGI (SN12C renal) was 32.3 µM. For the same compound, the TGI (DMS 273 small cell lung) was over 100 µM, the TGI (LXFL 529 NSCLC) was over 100 µM and the TGI (OVCAR-5 ovarian) was 56.5 µM. For the same compound, the TGI (K-562 leukemia) was over 100 µM, the TGI (NCI-H460 lung) was 40.9 µM and the TGI (OVCAR-8 ovarian) was over 100 µM. The TGI (SK-MEL-5 melanoma) was 28.2 µM, the TGI (NCI-H23 lung) was 35.7 µM and the TGI (HT29 colon) was 16 µM. The TGI (HOP-18 NSCLC) was over 100 µM, the TGI (EKVX NSCLC) was over 100 µM and the TGI (SW-620 colon) was over 100 µM. It also gave a TGI (SF-295 CNS) of over 100 µM, a TGI (SF-539 CNS) of 29.9 µM and a TGI (RXF-631 renal) of over 100 µM. It also gave a TGI (SF-268 CNS) of 43 µM, a TGI (CCRF-CEM leukemia) of 64.4 µM and a TGI (XF 498 CNS) of 33.9 µM. The TGI (RXF 393 renal) was 18.9 µM, the TGI (U251 CNS) was 58.1 µM and the TGI (HL-60(TB) leukemia) was over 100 µM. The TGI (COLO 205 colon) was 38 µM, the TGI (KM20L2 colon) was 24.5 µM and the TGI (CAKI-1 renal) was over 100 µM. The TGI (DLD-1 colon) was 57.7 µM, the TGI (TK-10 renal) was 51.1 µM and the TGI (M14 melanoma) was 38.9 µM. It also gave a TGI (OVCAR-3 ovarian) of 38.6 µM, a TGI (IGROV1 ovarian) of over 100 µM and a TGI (HCT-116 colon) of 19.7 µM. The TGI (SK-MEL-2 melanoma) was 33 µM and the TGI (UACC-62 melanoma) was 18.6 µM.
Work on `COC(=O)CCC(=O)C(C#N)c1ccc(Cl)cc1Cl` (stereo not given) yielded a TGI (MOLT-4 leukemia) of over 100 µM, a TGI (ACHN renal) of over 100 µM and a TGI (HOP-92 NSCLC) of over 100 µM. For the same compound, the TGI (SNB-78 CNS) was over 100 µM, the TGI (HCT-15 colon) was over 100 µM and the TGI (MALME-3M melanoma) was over 100 µM. It also gave a TGI (786-0 renal) of over 100 µM, a TGI (M19-MEL melanoma) of over 100 µM and a TGI (SR leukemia) of over 100 µM. The TGI (SK-MEL-28 melanoma) was over 100 µM, the TGI (SNB-75 CNS) was over 100 µM and the TGI (UO-31 renal) was over 100 µM. For the same compound, the TGI (A549 NSCLC) was over 100 µM, the TGI (SK-OV-3 ovarian) was over 100 µM and the TGI (UACC-257 melanoma) was over 100 µM. The TGI (SNB-19 CNS) was over 100 µM, the TGI (RPMI-8226 leukemia) was over 100 µM and the TGI (SN12C renal) was over 100 µM. It also gave a TGI (DMS 273 small cell lung) of over 100 µM, a TGI (LXFL 529 NSCLC) of over 100 µM and a TGI (K-562 leukemia) of over 100 µM. The TGI (NCI-H23 lung) was over 100 µM, the TGI (HT29 colon) was over 100 µM and the TGI (NCI-H226 lung) was over 100 µM. It also gave a TGI (EKVX NSCLC) of over 100 µM, a TGI (SW-620 colon) of over 100 µM and a TGI (SF-295 CNS) of over 100 µM. It also gave a TGI (SF-539 CNS) of over 100 µM, a TGI (KM12 colon) of over 100 µM and a TGI (RXF-631 renal) of over 100 µM. The TGI (NCI-H522 lung) was over 100 µM, the TGI (SF-268 CNS) was over 100 µM and the TGI (CCRF-CEM leukemia) was over 100 µM. The TGI (XF 498 CNS) was over 100 µM, the TGI (U251 CNS) was over 100 µM and the TGI (HL-60(TB) leukemia) was over 100 µM. The TGI (LOX IMVI melanoma) was over 100 µM, the TGI (KM20L2 colon) was over 100 µM and the TGI (CAKI-1 renal) was over 100 µM. It also gave a TGI (DLD-1 colon) of over 100 µM, a TGI (TK-10 renal) of over 100 µM and a TGI (M14 melanoma) of over 100 µM. For the same compound, the TGI (OVCAR-3 ovarian) was over 100 µM, the TGI (IGROV1 ovarian) was over 100 µM and the TGI (HCT-116 colon) was over 100 µM. It also gave a TGI (SK-MEL-2 melanoma) of over 100 µM and a TGI (UACC-62 melanoma) of over 100 µM.
